Where two headings read alike, the source gives them in different places.
Legend:
[1] = molecular target: T1, pUL15N (N-terminus domain of DPV pUL15) (anatid alphaherpesvirus 1, UniProt C6ZD26); conditions: 1 mM ATP, 2 µM protein, 2 mM MgCl2, 50 mM NaCl, pH 7.5, 37 °C
T1 construct: gene UL15

[2] = molecular target: T2, DPV pUL15FL (full-length pUL15) (anatid alphaherpesvirus 1, UniProt C6ZD26); type: biochemical
T2 construct: gene UL15

| Structure (SMILES) | malachite green phosphate release [1] | malachite green phosphate release ([2]; 1 mM ATP, 2 mM MgCl2, 50 mM NaCl, pH 7.5, 37 °C) | malachite green phosphate release [2] |
| --- | --- | --- | --- |
| Nc1ncnc2c1ncn2[C@@H]1O[C@H](COP(=O)(O)OP(=O)(O)OP(=O)(O)O)[C@@H](O)[C@H]1O [ATP] | the pUL15N exhibited ATPase activity like pUL15FL, whereas pUL15C did not | DPV pUL15FL hydrolyzes both ATP and ADP | – |
| Nc1ncnc2c1ncn2[C@@H]1O[C@H](COP(=O)(O)OP(=O)(O)O)[C@@H](O)[C@H]1O [ADP] | – | – | DPV pUL15FL hydrolyzes both ATP and ADP |

— article PMC12567909 (Veterinary Sciences, 2025)
